From US20260232682A1, “GSPT1 DEGRADER COMPOUNDS” (Captor Therapeutics S.A., priority 2023, published 2026)

Tests used:
Hep3B cells = experiment: Cell viability CTG assay, Hep3B; format: cell-based; conditions: Homo sapiens, 72 hours treatment, read-out: Hep3B Geomean absolute IC50
Description: (§1) The effect of selected compounds of the invention on cell viability in various cell lines was investigated using the Cell Viability—CTG Assay Protocol below.
(§2) Hep3B, Hep3B GSPT1 G575N mut., Kelly, KG-1 and NCI-H929 cells were maintained in respective cell medium (see Table 5, below). Cells were seeded in appropriate density (see Table 6, below) onto 384-white plates (Greiner, cat. no. 781080 or 781098) and incubated overnight (Hep3B, Hep3B GSPT1 G575N, Kelly) or treated with compounds immediately after seeding (KG-1, NCI-H929). Tested compounds and DMSO (vehicle control) were dispensed to the plates using Echo 555 Liquid Handler. 12 data-point compound titration curve with concentrations ranging from 50 μM to 1 nM was used. Final DMSO concentration was kept constant at 0.25% v/v across the assay plate. After 72 h incubation (37° C., 5% CO2), cell viability was assessed using CellTiter-Glo® assay kit (Promega, cat. no G7573). Luminescence was measured using CLARIOstar multimode plate reader (BMG LABTECH). The raw data (the relative luminescence unit values, RLU) were uploaded under the relevant protocol and analysed in CDDVault data management platform. Luminescence (RLU) values were normalized to the controls, and reported absolute IC50 values were calculated in CDDVault using non-linear regression and appropriate equations.

KG-1 cells = experiment: Cell viability CTG assay, KG-1; format: cell-based; conditions: Homo sapiens, 72 hours treatment, read-out: KG-1 Geomean absolute IC50
Description: as §1, §2

[1] = system: Hep3B GSPT1 G575N mut. cells; experiment: Cell viability CTG assay, Hep3B GSPT1 G575N mut.; format: cell-based; conditions: Homo sapiens, 72 hours treatment, read-out: Hep3B GSPT1 G575N Geomean absolute IC50
Description: as §1, §2

Kelly cells = experiment: Cell viability CTG assay, Kelly; format: cell-based; conditions: 72 hours treatment, read-out: Kelly Geomean absolute IC50
Description: as §1, §2

NCI-H929 cells = experiment: Cell viability CTG assay, NCI-H929; format: cell-based; conditions: Homo sapiens, 72 hours treatment, read-out: NCI-H929 Geomean absolute IC50
Description: as §1, §2

[2] = Chemical stability in MV-4-11 medium; conditions: 37° C.
Description: Next, 500 μL of each solution was transferred to the 96-deep-well plate. Three replicates for each compound were performed. Plate was afterwards incubated at 37° C. with shaking (220 rpm). 50 μL of sample were withdrawn for the each timepoint (0, 1, 3, 6, 24, 48, 72, and 168 hours) and immediately mixed with 50 μL of acetonitrile. Next, samples were centrifuged at 3900 rpm, 10° C. for 20 minutes. 40 μL of supernatant was diluted with 120 μL of acetonitrile containing internal standard (IS) (10 μM), mixed, and analyzed by LC-MS/MS.
Thermo Fisher Scientific Altis+ coupled with a Vanquish system were used for UHPLC-MS/MS analysis. Analytes were separated on a Kinetex XB-C18 2.6 μm, 50×2.1 mm column, using gradient of water with 0.1% (v/v) formic acid (solvent A) and acetonitrile with 0.1% (v/v) formic acid (solvent B): 0.0 min 5% B, 0.5 min 5% B, 1.0 min 70% B, 3.0 min 95% B, 3.5 min 95% B, 3.7 min 5% B, 5 min 5% B. The mobile phase flow rate was set to 0.3 mL/min and the column was kept in 40° C. 1 μL of samples were injected. The MS/MS analysis was performed using SRM mode in positive ionization. Source parameters were set as follow: Ion Source Type H-ESI, Spray Voltage 3800 V, Sheath Gas 50 Arb, Aux Gas 10 Arb, Sweep Gas 1 Arb, Ion Transfer Tube Temp 325° C., Vaporizer Temp 350° C., Collision Gas Pressure 1.5 mTorr, Q1/Q3 Resolution (FWHM) 0.7. Three transitions were monitored for each analyte and for the internal standard:
Quantitation was based on the peak area ratio between the test compound and IS. The amount of compound remaining in the sample was calculated as follow:
The slope of logarithmic curve of percent remaining versus time has been used for calculation of half-life (t_half). First, the elimination constant (k) was calculated using the equation:
Next, half-life (t_half) was calculated using equation:

| IC50 (Hep3B cells) [nM] | IC50 [1] [nM] | IC50 (NCI-H929 cells) [nM] | % remaining at 24 hrs ([2]; concentration 1 μM) | t_half [hours] ([2]; concentration 1 μM) | % remaining at 24 hrs ([2]; concentration 10 μM) | t_half [hours] ([2]; concentration 10 μM) | SMILES | IC50 (KG-1 cells) [nM] | IC50 (Kelly cells) [nM] |
| --- | --- | --- | --- | --- | --- | --- | --- | --- | --- |
| > 5000 | > 5000 | > 5000 | – | – | – | – | Cc1ccc(NC(=S)NCc2ccc3cc(C4CCC(=O)NC4=O)c(C)nc3c2)cc1Cl (stereo not shown) [Compound 2, 1-(3-chloro-4-methylphenyl)-3-((3-(2,6-dioxopiperidin-3-yl)-2-methylquinolin-7-yl)methyl)thiourea] | 1000 to 5000 | 1000 to 5000 |
| ≤ 100 | > 5000 | ≤ 100 | a (a≥50%) | A (A≥15 hrs) | b (25%≤b<50%) | A (A≥15 hrs) | Cc1ccc(NC(=O)OCc2ccc3cc(C4CCC(=O)NC4=O)c(C)nc3c2)cc1Cl (stereo not shown) [Compound 4, (3-(2,6-dioxopiperidin-3-yl)-2-methylquinolin-7-yl)methyl (3-chloro-4-methylphenyl)carbamate] | ≤ 100 | ≤ 100 |
| ≤ 100 | > 5000 | ≤ 100 | – | – | – | – | Cc1ccc(NC(=O)OCc2ccc3nc(C)c(C4CCC(=O)NC4=O)cc3c2)cc1Cl (stereo not shown) [Compound 5, (3-(2,6-dioxopiperidin-3-yl)-2-methylquinolin-6-yl)methyl (3-chloro-4-methylphenyl)carbamate] | ≤ 100 | ≤ 100 |
